Test results reported in patent US4215112A, “Tripeptides and methods” (Ortho Pharmaceutical Corporation, priority 1979, dated 1980).
Where a SMILES comes first, the peptide text is derived from it. Where no end group is shown, it is not given here. [ ]: non-standard residue; d: D form. Glx = not defined here; Sar = CNCC(=O)O

Key:
T cells and B cells = settings: literature / copending application; cited from earlier work
T cells = settings: E rosette assay; literature; cited from earlier work
[1] = system: Th-1+ T lymphocytes (T-precursor cells of bone marrow); assay: chicken induction assay, Th-1+ T cells; assay type: cell-based
Description: (§1) To determine the activity and characteristics of the tripeptide amide produced in Example I, the following chicken induction assay was employed. This assay is described in greater detail in Brand, et al., Science, 193, 319-321 (July 23, 1976) and references contained therein.
(§2) Bone marrow from newly-hatched chickens was selected as a source of inducible cells because it lacks an appreciable number of Bu-1^+ or Th-1^+ cells. Pooled cells from femur and tibiotarsus of five newly-hatched chicks of strain SC (Hy-Line) were fractionated by ultracentrifugation on a five-layer discontinuous bovine serum albumin (BSA) gradient. Cells from the two lighter layers were combined, washed, and suspended for incubation at a concentration of 5×10^6 cells per milliliter with the appropriate concentration of test polypeptide in RPMI 1630 medium supplemented with 15 mM hepes, 5 percent γ-globulin-free fetal calf serum, deoxyribonuclease (14 to 18 unit/ml), heparin (5 unit/ml), penicillin (100 unit/ml), and streptomycin (100 μg/ml). Controls were incubated with BSA (1 μg/ml) or medium alone. After incubation, the cells were tested in the cytotoxicity assay using chicken Cl and guinea pig C2 to C9 complement fractions as described in the reference article. The proportion of Bu-1^+ or Th-1^+ cells in each layer was calculated as a cytotoxicity index, 100 (a-b)/a, where a and b are the percentages of viable cells in the complement control and test preparation, respectively. The percentage of cells induced was obtained by subtracting the mean values in the control incubations without inducing agents (usually 1 to 3 percent) from those of the test inductions.
(§3) This high dose of ubiquitin inactivates the ubiquitin receptors and thus prevents the induction of cells by any agent which acts through these receptors.

[2] = system: Bu-1+ B lymphocytes (B-precursor cells of bone marrow); assay: chicken induction assay, Bu-1+ B cells; assay type: cell-based
Description: as §1, §2, §3

[3] = system: immunocyte-precursor cells; assay: in vitro induction of differentiation of immunocyte-precursor cells (general statement); assay type: cell-based
Description: Stated another way, the subject polypeptides have the capability of inducing differentiation of both Th-1^+ T-lymphocytes and Bu-1^+ B-lymphocytes.
The carrier may be any of the well-known carriers for this purpose including normal saline solutions, preferably with a protein diluent such as bovine serum albumin to prevent adsorptive losses to glassware at these low concentrations. The polypeptides of this invention are generally active when parenterally administered at a range of above about 1 μg/kg of body weight. For the treatment of DiGeorge Syndrome, the polypeptides may be parenterally administered at a rate of about 1 to about 100 μg/kg of body weight. Generally, the same range of dosage amounts may be used in treatment of the other conditions or diseases mentioned.

[4] = bone marrow cells of newly-hatched chickens, cytotoxicity assay

H--SAR--LYS--SAR--GLN--NH2
differentiation of T cells and B cells (T cells and B cells): same activity as FTS

GLX--ALA--LYS--SER--GLN--GLY--GLY--SER--ASN (Glx-AKSQGGSN; reading uncertain; also: N-terminal Glx: Gln or pyroglutamic acid, printed as GLX--ALA--LYS--SER--GLN--GLY--GLY--SER--ASN) [FTS, nonapeptide isolated from porcine serum; GLX is glutamine or pyroglutamic acid]
differentiation of T cells versus B cells (T cells): selectively differentiated T cells (and not B cells) | differentiation of T cells and B cells (T cells and B cells): differentiated both T cells and B cells

CN(CC(=O)N[C@@H](CCC(N)=O)C(N)=O)C(=O)[C@@H](N)CCCCN [amidated tripeptide of Example I, H--LYS--SAR--GLN--NH2] (H-Lys-[Sar]-Gln-NH2)
concentration inducing the differentiation of Th-1+ T lymphocytes [1, 4]: 100 pg/mL | effect of added ubiquitin on induction of Th-1+ T cells by the test polypeptide ([1]; ubiquitin 100 μg/ml added): inhibition of induction | concentration inducing the differentiation of Bu-1+ B lymphocytes [2, 4]: 100 pg/mL | effect of added ubiquitin on induction of Bu-1+ B cells by the test polypeptide ([2]; ubiquitin 100 μg/ml added): inhibition of induction | concentration at which active [3]: about 100 pg/ml

C[C@@H](NC(=O)[C@@H](N)CCCCN)C(=O)N[C@@H](CCC(N)=O)C(N)=O [H--LYS--D--ALA--GLN--NH2] (H-Lys-[dA]-Gln-NH2)
biological activity: induction of differentiation of Th-1+ T cells ([1]; result in words): Biological activity similar to that of ubiquitin was observed | biological activity: induction of differentiation of Bu-1+ B cells ([2]; result in words): Biological activity similar to that of ubiquitin was observed

H--ALA--LYS--SER--GLN--OH (H-AKSQ-OH) [tetrapeptide of copending application Ser. No. 960,550]
differentiation of T cells and B cells (T cells and B cells): same activity as FTS
